Among the data in publication PMC4579270, “Identification and Characterization of an Irreversible Inhibitor of CDK2” (Chemistry & Biology, 2015) are remaining activity values, retold here.

Common to all, as to experiment: Dundee protein kinase screen
Holding throughout (format): biochemical

One assay addresses MST3 (Homo sapiens, UniProt Q9Y6E0). Conditions: MST3, 1µM; read-out: %Remaining activity at 1µM NU6300. On the procedure: (§1) Prior to determining its cellular activity, we carried out a screen to assess its selectivity against a panel of 131 protein kinases under conditions that would not distinguish between a reversible or irreversible mode of action. […] These 13 kinases and 29 additional kinases, selected for their known sensitivity to other inhibitors within the purine series, were then tested in a modified screening format in which the assay was repeated following a 4-hr pre-incubation (Table S3B). […] However, conformational flexibility around the active site may promote such an interaction with a residue from another part of the structure ([Martin et al., 2012]).
(§2) Table S3, Related to Figure 4. NCL-0006300 protein kinase selectivity. (A) NU6300 was tested at a single concentration of 1µM against 131 protein kinases present in a Dundee protein kinase screen (Bain et al., 2007). Values given are % activity remaining and are the average of duplicate measurements: 0-25% (red), 26-50% (yellow), 51-80% […]
(§3) (black) and above 81% (green). […]

A further assay concerns the target PKBβ (Homo sapiens, UniProt P31751). Conditions: read-out: %Remaining activity at 1µM NU6300. The protocol: as §1, §2, §3
The next assay has as its target MPSK1 (Homo sapiens, UniProt O75716). As to conditions: MPSK1, 1µM; read-out: %Remaining activity at 1µM NU6300. On the procedure:
as §1, §2, §3

A further assay addresses T1, TBK1 (Homo sapiens, UniProt Q9UHD2).
T1 sequence (Q9UHD2 1-729): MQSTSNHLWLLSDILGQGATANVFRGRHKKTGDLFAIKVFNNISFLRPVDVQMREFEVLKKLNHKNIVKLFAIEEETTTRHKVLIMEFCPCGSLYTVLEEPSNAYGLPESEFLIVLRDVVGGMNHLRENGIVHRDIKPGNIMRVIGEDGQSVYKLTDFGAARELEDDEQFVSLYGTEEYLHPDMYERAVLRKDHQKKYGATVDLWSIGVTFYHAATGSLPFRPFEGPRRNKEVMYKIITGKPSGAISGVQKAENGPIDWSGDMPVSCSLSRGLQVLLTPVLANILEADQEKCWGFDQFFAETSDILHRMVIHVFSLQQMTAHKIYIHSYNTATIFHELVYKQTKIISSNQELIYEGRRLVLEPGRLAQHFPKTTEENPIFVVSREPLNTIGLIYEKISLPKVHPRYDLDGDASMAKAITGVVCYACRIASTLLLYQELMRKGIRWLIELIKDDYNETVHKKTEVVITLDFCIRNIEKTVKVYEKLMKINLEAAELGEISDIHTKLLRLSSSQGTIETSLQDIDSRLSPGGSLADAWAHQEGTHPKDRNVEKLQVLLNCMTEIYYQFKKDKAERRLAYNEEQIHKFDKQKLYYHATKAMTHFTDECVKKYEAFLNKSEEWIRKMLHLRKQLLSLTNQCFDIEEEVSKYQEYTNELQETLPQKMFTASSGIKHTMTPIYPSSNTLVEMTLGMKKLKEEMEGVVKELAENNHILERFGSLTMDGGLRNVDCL
As to conditions: TBK1, 1µM; read-out: %Remaining activity at 1µM NU6300. The protocol: as §1, §2, §3

Another assay deals with OSR1 (Homo sapiens, UniProt O95747). Conditions: OSR1, 1µM; read-out: %Remaining activity at 1µM NU6300. On the procedure: as §1, §2, §3
Sequence of OSR1 (O95747 whole entry): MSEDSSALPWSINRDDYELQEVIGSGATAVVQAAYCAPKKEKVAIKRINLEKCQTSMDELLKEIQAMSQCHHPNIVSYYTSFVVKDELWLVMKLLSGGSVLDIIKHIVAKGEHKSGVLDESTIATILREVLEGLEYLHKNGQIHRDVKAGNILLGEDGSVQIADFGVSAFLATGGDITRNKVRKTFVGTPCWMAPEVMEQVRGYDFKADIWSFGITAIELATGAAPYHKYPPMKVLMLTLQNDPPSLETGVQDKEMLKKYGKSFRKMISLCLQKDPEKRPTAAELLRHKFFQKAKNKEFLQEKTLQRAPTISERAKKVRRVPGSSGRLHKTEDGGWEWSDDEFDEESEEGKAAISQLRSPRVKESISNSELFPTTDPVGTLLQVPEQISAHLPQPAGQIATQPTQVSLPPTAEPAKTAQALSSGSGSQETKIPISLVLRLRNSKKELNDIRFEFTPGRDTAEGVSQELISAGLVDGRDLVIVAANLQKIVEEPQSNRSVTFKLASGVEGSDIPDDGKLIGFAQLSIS
Another assay has as its target PIM2 (Homo sapiens, UniProt Q9P1W9). As to conditions: PIM2, 1µM; read-out: %Remaining activity at 1µM NU6300. The protocol: as §1, §2, §3
For another assay, the target named is YES1 (Homo sapiens, UniProt P07947). Conditions: YES1, 1µM; read-out: %Remaining activity at 1µM NU6300. The protocol:
as §1, §2, §3

In a further assay the target is T2, TAK1 (Homo sapiens, UniProt O43318).
T2 sequence (O43318 1-303 limits assumed): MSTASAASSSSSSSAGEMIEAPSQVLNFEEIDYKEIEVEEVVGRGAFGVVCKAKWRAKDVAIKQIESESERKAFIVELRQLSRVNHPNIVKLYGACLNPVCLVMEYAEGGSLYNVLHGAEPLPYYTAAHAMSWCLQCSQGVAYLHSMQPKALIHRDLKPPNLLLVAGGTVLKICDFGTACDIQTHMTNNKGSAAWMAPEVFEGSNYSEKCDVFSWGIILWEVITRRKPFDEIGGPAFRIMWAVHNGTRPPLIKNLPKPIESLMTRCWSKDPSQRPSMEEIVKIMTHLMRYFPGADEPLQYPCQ
As to conditions: TAK1, 1µM; read-out: %Remaining activity at 1µM NU6300. The protocol: as §1, §2, §3

Another assay concerns the target p38β MAPK (Homo sapiens, UniProt Q15759). As to conditions: read-out: %Remaining activity at 1µM NU6300. The protocol:
as §1, §2, §3

In a further assay the target is PKCγ (Homo sapiens, UniProt P05129). As to conditions: read-out: %Remaining activity at 1µM NU6300. The protocol: as §1, §2, §3
The target of another assay is RSK2 (Homo sapiens, UniProt P51812). Conditions: RSK2, 1µM; read-out: %Remaining activity at 1µM NU6300. The protocol:
as §1, §2, §3

Another assay deals with T3, NUAK1 (Homo sapiens, UniProt O60285).
T3 sequence (O60285 1-661): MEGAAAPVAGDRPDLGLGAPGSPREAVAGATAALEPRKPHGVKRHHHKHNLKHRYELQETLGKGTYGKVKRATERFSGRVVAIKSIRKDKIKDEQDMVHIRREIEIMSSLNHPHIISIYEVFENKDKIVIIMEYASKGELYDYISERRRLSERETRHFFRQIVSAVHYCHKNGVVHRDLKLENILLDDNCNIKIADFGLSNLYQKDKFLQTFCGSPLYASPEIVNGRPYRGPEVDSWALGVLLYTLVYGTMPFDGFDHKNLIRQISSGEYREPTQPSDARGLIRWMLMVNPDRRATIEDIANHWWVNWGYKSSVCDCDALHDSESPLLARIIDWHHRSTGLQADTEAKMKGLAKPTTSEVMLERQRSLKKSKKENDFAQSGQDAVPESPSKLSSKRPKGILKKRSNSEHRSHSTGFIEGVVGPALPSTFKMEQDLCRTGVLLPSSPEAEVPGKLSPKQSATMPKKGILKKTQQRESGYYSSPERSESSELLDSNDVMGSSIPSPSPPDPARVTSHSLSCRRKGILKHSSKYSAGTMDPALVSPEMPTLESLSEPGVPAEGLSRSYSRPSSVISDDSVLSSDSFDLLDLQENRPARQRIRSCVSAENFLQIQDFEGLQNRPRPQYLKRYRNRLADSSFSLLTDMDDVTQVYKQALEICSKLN
Conditions: NUAK1, 1µM; read-out: %Remaining activity at 1µM NU6300. The protocol:
as §1, §2, §3

Sequence of PKBβ (P31751 whole entry): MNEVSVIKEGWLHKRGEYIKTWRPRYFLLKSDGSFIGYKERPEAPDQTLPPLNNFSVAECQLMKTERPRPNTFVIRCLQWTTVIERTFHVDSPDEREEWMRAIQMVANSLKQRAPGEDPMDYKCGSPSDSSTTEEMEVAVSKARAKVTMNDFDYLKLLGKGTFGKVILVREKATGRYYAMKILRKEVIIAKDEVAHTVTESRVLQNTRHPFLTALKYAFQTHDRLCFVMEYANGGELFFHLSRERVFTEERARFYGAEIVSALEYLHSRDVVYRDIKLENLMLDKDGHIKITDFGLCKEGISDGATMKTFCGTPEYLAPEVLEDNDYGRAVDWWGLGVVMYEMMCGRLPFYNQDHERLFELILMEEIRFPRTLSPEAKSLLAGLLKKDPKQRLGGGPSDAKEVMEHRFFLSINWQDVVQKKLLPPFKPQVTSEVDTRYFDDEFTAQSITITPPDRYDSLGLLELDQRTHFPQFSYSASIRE
Sequence of MPSK1 (O75716 whole entry): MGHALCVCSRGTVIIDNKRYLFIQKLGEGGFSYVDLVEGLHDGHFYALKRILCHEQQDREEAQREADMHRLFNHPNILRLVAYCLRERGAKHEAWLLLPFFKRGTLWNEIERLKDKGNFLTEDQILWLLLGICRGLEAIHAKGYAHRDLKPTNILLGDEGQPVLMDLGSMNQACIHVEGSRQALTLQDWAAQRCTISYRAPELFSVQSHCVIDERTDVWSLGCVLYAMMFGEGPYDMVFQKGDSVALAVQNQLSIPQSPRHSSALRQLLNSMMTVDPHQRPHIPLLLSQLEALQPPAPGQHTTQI
Sequence of PIM2 (Q9P1W9 whole entry): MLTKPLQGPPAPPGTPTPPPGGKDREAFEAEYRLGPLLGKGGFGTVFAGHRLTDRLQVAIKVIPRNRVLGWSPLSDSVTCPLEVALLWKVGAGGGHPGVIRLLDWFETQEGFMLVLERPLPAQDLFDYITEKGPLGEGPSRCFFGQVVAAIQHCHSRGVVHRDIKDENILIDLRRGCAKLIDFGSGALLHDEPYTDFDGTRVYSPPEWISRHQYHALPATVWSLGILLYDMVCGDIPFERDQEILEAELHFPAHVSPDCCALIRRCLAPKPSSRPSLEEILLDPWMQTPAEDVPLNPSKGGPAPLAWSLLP
Sequence of MST3 (Q9Y6E0 whole entry): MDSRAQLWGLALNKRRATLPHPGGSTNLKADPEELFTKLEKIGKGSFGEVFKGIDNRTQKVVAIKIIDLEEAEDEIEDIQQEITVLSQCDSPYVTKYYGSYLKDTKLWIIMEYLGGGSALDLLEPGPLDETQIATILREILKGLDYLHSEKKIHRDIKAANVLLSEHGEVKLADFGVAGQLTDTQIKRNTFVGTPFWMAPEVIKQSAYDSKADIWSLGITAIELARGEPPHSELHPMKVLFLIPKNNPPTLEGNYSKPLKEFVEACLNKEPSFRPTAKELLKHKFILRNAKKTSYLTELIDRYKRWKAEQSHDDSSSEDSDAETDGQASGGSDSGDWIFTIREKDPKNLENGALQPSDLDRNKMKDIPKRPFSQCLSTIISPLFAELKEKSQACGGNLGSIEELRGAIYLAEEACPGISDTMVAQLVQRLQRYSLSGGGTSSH
Sequence of YES1 (P07947 whole entry): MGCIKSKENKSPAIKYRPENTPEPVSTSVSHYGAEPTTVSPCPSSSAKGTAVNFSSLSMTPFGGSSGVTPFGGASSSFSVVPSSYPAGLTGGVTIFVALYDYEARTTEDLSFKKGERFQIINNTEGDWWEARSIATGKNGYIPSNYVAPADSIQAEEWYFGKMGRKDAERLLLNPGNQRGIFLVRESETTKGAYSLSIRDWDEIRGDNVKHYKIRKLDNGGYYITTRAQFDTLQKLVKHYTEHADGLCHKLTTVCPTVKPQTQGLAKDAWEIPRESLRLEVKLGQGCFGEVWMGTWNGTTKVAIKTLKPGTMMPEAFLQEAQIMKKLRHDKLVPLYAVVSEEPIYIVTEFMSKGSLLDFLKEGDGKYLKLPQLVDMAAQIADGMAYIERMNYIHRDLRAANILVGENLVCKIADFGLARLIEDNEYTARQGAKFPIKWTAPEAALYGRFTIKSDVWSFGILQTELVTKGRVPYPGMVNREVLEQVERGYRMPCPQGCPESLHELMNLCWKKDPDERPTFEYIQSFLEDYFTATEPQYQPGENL
Sequence of p38β MAPK (Q15759 whole entry): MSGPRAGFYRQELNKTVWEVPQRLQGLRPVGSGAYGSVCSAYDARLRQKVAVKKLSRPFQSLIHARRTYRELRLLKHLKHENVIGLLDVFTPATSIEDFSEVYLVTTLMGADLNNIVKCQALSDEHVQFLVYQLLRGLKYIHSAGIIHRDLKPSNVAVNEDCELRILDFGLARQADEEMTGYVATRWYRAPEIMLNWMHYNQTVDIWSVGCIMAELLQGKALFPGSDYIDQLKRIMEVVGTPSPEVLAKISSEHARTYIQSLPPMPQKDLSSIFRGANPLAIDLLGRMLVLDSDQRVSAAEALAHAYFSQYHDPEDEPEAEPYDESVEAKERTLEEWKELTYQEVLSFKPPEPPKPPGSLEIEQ
Sequence of RSK2 (P51812 whole entry): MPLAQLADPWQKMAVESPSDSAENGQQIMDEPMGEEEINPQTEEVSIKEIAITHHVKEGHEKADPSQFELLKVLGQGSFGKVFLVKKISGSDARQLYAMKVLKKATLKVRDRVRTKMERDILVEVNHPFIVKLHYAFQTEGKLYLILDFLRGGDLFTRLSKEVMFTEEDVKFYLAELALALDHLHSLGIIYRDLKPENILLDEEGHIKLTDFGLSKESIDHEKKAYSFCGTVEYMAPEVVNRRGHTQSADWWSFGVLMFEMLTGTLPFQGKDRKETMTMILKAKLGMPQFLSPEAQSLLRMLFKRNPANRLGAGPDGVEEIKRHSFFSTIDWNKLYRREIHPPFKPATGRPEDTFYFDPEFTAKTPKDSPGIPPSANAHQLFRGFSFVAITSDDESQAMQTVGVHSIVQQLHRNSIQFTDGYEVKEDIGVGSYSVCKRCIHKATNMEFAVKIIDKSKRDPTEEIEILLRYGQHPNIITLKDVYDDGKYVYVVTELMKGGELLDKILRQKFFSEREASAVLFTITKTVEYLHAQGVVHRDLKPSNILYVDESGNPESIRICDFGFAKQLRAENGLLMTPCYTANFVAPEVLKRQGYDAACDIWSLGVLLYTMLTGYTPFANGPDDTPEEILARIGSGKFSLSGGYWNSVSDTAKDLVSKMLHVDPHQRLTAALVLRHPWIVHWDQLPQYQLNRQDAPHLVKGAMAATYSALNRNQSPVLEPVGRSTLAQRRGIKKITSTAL

For the compound `C=CS(=O)(=O)c1ccc(Nc2nc(OCC3CCCCC3)c3nc[nH]c3n2)cc1` [NU6300, 6-(cyclohexylmethoxy)-N-(4-(vinylsulfonyl)phenyl)-9H-purin-2-amine], the remaining activity at 1 µM on MST3 turned out to be 54%; at PKBβ, 89%; on MPSK1 it was 92%; on TBK1, 45%; at OSR1, 67%; at PIM2, 96%. Further, the remaining activity at 1 µM on YES1 is 17%; on TAK1 it was 14%; at p38β MAPK it was 67%; on PKCγ, 104%; at RSK2, 54%; at NUAK1 it was 2%.
